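Tested at 5 concentrations; 48 h exposure; 96-well plates; endpoints linearly interpolated, else capped at highest concentration. The concentration for full growth arrest is given as TGI.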

Some test systems named below: A549 NSCLC; CCRF-CEM leukemia; HCT-15 colon; HL-60(TB) leukemia; MDA-N; RPMI-8226 leukemia; SK-MEL-2 melanoma; SK-MEL-28 melanoma; SK-OV-3 ovarian; SW-620 colon.
Holding throughout (experiment): inhibition of tumour cell growth, NCI panel, 48 h

Turning to `O=C1CC(c2ccc[nH]2)=NN1c1ccccc1`, the TGI in the assay on A549 NSCLC, in the assay with CCRF-CEM leukemia, with HCT-15 colon, with HL-60(TB) leukemia, in the assay on MDA-N and in the assay on RPMI-8226 leukemia was more than 100 µM throughout. For the same compound, the TGI with SK-MEL-2 melanoma, in the assay with SK-MEL-28 melanoma, in the assay on SK-OV-3 ovarian and in the assay with SW-620 colon was more than 100 µM throughout.

Turning to `CCOC(=O)/C=C(\N=P(c1ccccc1)(c1ccccc1)c1ccccc1)C(F)(F)C(F)(F)C(F)(F)C(F)(F)C(F)(F)F`, the TGI in the assay on A549 NSCLC, in the assay on CCRF-CEM leukemia, in the assay on HCT-15 colon, in the assay with HL-60(TB) leukemia, with MDA-N and with RPMI-8226 leukemia was more than 100 µM throughout. Also, the TGI in the assay with SK-MEL-2 melanoma, with SK-MEL-28 melanoma, in the assay on SK-OV-3 ovarian and in the assay with SW-620 colon was more than 100 µM each time.

As to `COc1ccc(-n2c3c(c4c(CN(C)C)c(O)ccc42)C(=O)c2ccccc2C3=O)cc1`, the TGI in the assay on A549 NSCLC came to 37.5 µM; in the assay on CCRF-CEM leukemia it was 8.35 µM; in the assay on HCT-15 colon, 10.5 µM; in the assay on HL-60(TB) leukemia, 19.5 µM; in the assay on MDA-N, 21.2 µM; in the assay with RPMI-8226 leukemia, 4.88 µM. Besides, the TGI in the assay on SK-MEL-2 melanoma turned out to be 45.8 µM; in the assay on SK-MEL-28 melanoma, 14.7 µM; in the assay with SK-OV-3 ovarian it was 8.01 µM; in the assay with SW-620 colon, 7.53 µM.

On to `N#C[C@@]12CCCC(=O)[C@@H]1[C@H]1CCC[C@H]12`, for which the TGI in the assay on A549 NSCLC is 37 µM; in the assay on CCRF-CEM leukemia it was 57.4 µM; in the assay with HCT-15 colon, 38.2 µM; in the assay with HL-60(TB) leukemia, 34.1 µM; in the assay on MDA-N, 38.4 µM; in the assay with RPMI-8226 leukemia, 32.3 µM. In addition, the TGI with SK-MEL-2 melanoma was 43.3 µM; with SK-MEL-28 melanoma, 35.3 µM; in the assay with SK-OV-3 ovarian, 32.8 µM; with SW-620 colon, 45.2 µM.

In the case of `CC(C)(C)OC(=O)Nc1cc(-c2ccccc2)co1`, the TGI in the assay on A549 NSCLC, in the assay with CCRF-CEM leukemia, in the assay on HCT-15 colon, in the assay with HL-60(TB) leukemia, in the assay with MDA-N and in the assay on RPMI-8226 leukemia was more than 100 µM each time. Moreover, the TGI in the assay on SK-MEL-2 melanoma, in the assay on SK-MEL-28 melanoma, in the assay on SK-OV-3 ovarian and in the assay on SW-620 colon was more than 100 µM throughout.

Regarding `Cc1ccc(O)c(-c2csc(NCN3CCN(CNc4nc(-c5cc(C)ccc5O)cs4)CC3)n2)c1`, the TGI in the assay with A549 NSCLC, in the assay on CCRF-CEM leukemia, in the assay on HCT-15 colon, in the assay with HL-60(TB) leukemia, in the assay on MDA-N and in the assay on RPMI-8226 leukemia was more than 100 µM each time. Besides, the TGI with SK-MEL-2 melanoma, in the assay with SK-MEL-28 melanoma, in the assay with SK-OV-3 ovarian and in the assay with SW-620 colon was more than 100 µM throughout.

As to `N#CC(N=Nc1ccccc1)c1nc2ccccc2o1` (configuration not stated), the TGI in the assay with A549 NSCLC, with CCRF-CEM leukemia, in the assay with HCT-15 colon, in the assay with HL-60(TB) leukemia, in the assay with MDA-N and in the assay with RPMI-8226 leukemia was more than 100 µM in each case. Further, the TGI with SK-MEL-2 melanoma was 70.5 µM; in the assay on SK-MEL-28 melanoma, more than 100 µM; with SK-OV-3 ovarian, 68 µM.

As for `NCCCc1c(-c2ccccc2)nc(N)[nH]c1=O`, the TGI in the assay on A549 NSCLC, with CCRF-CEM leukemia, in the assay on HCT-15 colon, with HL-60(TB) leukemia, in the assay with MDA-N and in the assay on RPMI-8226 leukemia was more than 100 µM each time. Further, the TGI with SK-MEL-2 melanoma, with SK-MEL-28 melanoma, in the assay on SK-OV-3 ovarian and with SW-620 colon was more than 100 µM throughout.

As to `CCN(CC)CCSc1nc2c(c(=N)n1-c1ccccc1)c(=S)n(-c1ccccc1)c(=S)n2-c1ccccc1`, the TGI in the assay with A549 NSCLC is 4.77 µM; with CCRF-CEM leukemia it was 0.446 µM; in the assay on HCT-15 colon it was 4.35 µM; in the assay with HL-60(TB) leukemia it was 1.29 µM; with MDA-N, 6.55 µM; in the assay with RPMI-8226 leukemia, 1.02 µM. Besides, the TGI in the assay with SK-MEL-2 melanoma is 20.4 µM; in the assay with SK-MEL-28 melanoma, 16.5 µM; with SK-OV-3 ovarian it was 15.5 µM; in the assay on SW-620 colon it was more than 21.4 µM.

With `COc1ccc(CCc2ccc(O)c(C(=O)O)c2)cc1OC`, the TGI with A549 NSCLC, in the assay on CCRF-CEM leukemia, in the assay with HCT-15 colon, in the assay on HL-60(TB) leukemia, in the assay on MDA-N and with RPMI-8226 leukemia was more than 100 µM throughout. Further, the TGI in the assay on SK-MEL-2 melanoma, in the assay with SK-MEL-28 melanoma and in the assay with SK-OV-3 ovarian was more than 100 µM in each case.

In the case of `CN(C)CCNC(=O)c1ccc(NCCCN(C)CCCNc2ccc(C(=O)NCCN(C)C)c3[nH]c4ccc([N+](=O)[O-])cc4c(=O)c23)c2c(=O)c3cc([N+](=O)[O-])ccc3[nH]c12`, the TGI amounted to 0.64 µM in the assay with A549 NSCLC; 0.145 µM with CCRF-CEM leukemia; 1.8 µM with HCT-15 colon; 1.01 µM with HL-60(TB) leukemia; 0.997 µM with MDA-N; 0.151 µM with RPMI-8226 leukemia. The TGI was determined as 0.382 µM in the assay with SK-MEL-2 melanoma, 1.06 µM with SK-MEL-28 melanoma, 1.35 µM in the assay on SK-OV-3 ovarian and 0.557 µM with SW-620 colon.

Turning to `O=C(/C=C\Nc1ccccc1O)C(Cl)(Cl)Cl`, the TGI in the assay with A549 NSCLC was more than 100 µM; with CCRF-CEM leukemia, more than 100 µM; in the assay on HCT-15 colon it was more than 100 µM; in the assay on HL-60(TB) leukemia, more than 100 µM; in the assay on MDA-N, 59.2 µM; in the assay with RPMI-8226 leukemia, more than 100 µM. Further, the TGI in the assay with SK-MEL-2 melanoma, in the assay with SK-MEL-28 melanoma, in the assay on SK-OV-3 ovarian and in the assay on SW-620 colon was more than 100 µM each time.

With `S=C(c1c[nH]c2ccccc12)N1CCN(c2ccccc2)CC1`, the TGI in the assay with CCRF-CEM leukemia, in the assay with HCT-15 colon, in the assay on HL-60(TB) leukemia, with MDA-N, in the assay with RPMI-8226 leukemia and in the assay on SK-MEL-2 melanoma was more than 100 µM in each case. The TGI with SK-MEL-28 melanoma, in the assay with SK-OV-3 ovarian and with SW-620 colon was more than 100 µM throughout.

The values are drawn from PubChem BioAssay (NCI).
